Where a SMILES comes first, the peptide text is derived from it.
Key:
[1] = test system: metastatic B16 melanoma cells; experiment: B16 melanoma metastasis in chick embryo lungs; format: in vivo; conditions: 100 ug/embryo intravenously with cells; 7 days incubation; versus no-STQ-peptide group
Protocol: Twelve-day old chick embryos (obtained from SPAFAS, North Franklin, Conn.) were injected intravenously with metastatic B16 melanoma cells (Chambers, et al., J. Natl. Cancer Inst. 1992; 84:797-803) in the presence or absence of STQ-peptide (100 ug/embryo). For each experiment, eight to ten chicks were tested under each set of conditions, and the experiment was repeated three times. The embryos were incubated for 7 days and then sacrificed. The chick lungs were analyzed for metastasis. B16 melanoma metastases appeared as discrete black lesions. The metastases were quantified by counting the B16 tumor lesions on the surface of the chick lungs for the STQ-peptide and no-STQ-peptide groups. B16 melanoma metastasis was inhibited by greater than 95% in the STQ-peptide group as compared to the no-STQ-peptide group (FIG. 5).

[2] = test system: RPE cells on native laminin; experiment: RPE cell adhesion to native laminin; format: cell-based, human; conditions: any concentration of STQ-peptide tested (FIG. 3)
Protocol: (§1) Human denatured laminin (25 μg/ml) was immobilized on 48-well non-tissue culture treated plates. Wells were washed and incubated with 1% BSA (bovine serum albumin) in PBS (phosphate-buffered saline) for one hour at 37° C. Subconfluent RPE cells were harvested, washed, and resuspended in adhesion buffer containing RPMI-1640 medium, 1 mM MgCl2, 0.2 mM MnCl2, and 0.5% BSA. RPE cells (10^5) were resuspended in 200 μl of the adhesion buffer in the presence or absence of STQ-peptide at a concentration of 100 μg/ml or 200 μg/ml, and were added to each well and allowed to attach for 30 minutes at 37° C. The unattached cells were removed and the attached cells were stained for 10 minutes with crystal violet as described by Petitclerc, et al., Cancer Res. 1999; 59:2724-2730. The wells were washed three times with PBS and cell-associated crystal violet was eluted by addition of 100 μl of 10% acetic acid. Cell adhesion was quantified by measuring the optical density of eluted crystal violet at a wavelength of 600 nm.
A set of non-tissue culture treated 48-well plates were coated with native laminin in the presence of different concentrations of STQ-peptide according to the method described in Example 2 and by Petticlerc, et al., Cancer Res. 1999; 59:2724-2730. […]

[3] = test system: bFGF-induced angiogenesis in chorioallantoic membrane (CAM); experiment: bFGF-induced angiogenesis in the chick CAM model; format: in vivo; conditions: single intravenous injection 100 ug/embryo
Description: One angiogenesis assay measures angiogenesis in the chick chorioallantoic membrane (CAM) and is referred to as the CAM assay. The CAM assay is well known among those of ordinary skill in the art and has been used to measure both angiogenesis and neovascularization of tumor tissues (Ausprunk et al., Am. J. Pathol. 1975; 79:597-618 and Ossonski et al., Cancer Res. 1980; 40:2300-2309).
Angiogenesis was induced within the chorioallantoic membrane (CAM) of 10-day old chick embryos with bFGF. Twenty-four hours later, 8-10 of the embryos were treated with a single intravenous injection of STQ-peptide (100 ug/embryo). At the end of a 3-day incubation period, the CAM tissues were removed for analysis. […] The single injection of STQ-peptide inhibited bFGF by greater than 95% (FIG. 4). […] Eight to ten chick embryos were tested in each of the two groups, and the experiment was repeated three times for a total of 24-30 chick embryos tested.

[4] = test system: Human RPE cells on denatured laminin; experiment: RPE cell adhesion to denatured laminin; format: cell-based; conditions: for blockade of RPE cell adhesion to denatured laminin: 30 min attachment, crystal violet OD 600 nm
Protocol: In vitro cell adhesion assays were conducted to determine whether the STQ-peptides bind to functional epitopes within denatured laminin that regulate cellular adhesion. Non-tissue culture treated 48-well plates were coated with denatured laminin. Human RPE cells were allowed to attach to the coated wells in the absence of STQ-peptide, in the presence of STQ-peptide at a concentration of 100 μg/ml, and in the presence of STQ-peptide at a concentration of 200 μg/ml.
as §1
A set of non-tissue culture treated 48-well plates were coated with native laminin in the presence of different concentrations of STQ-peptide according to the method described in Example 2 and by Petticlerc, et al., Cancer Res. 1999; 59:2724-2730. Another set of non-tissue culture treated plates were coated with denatured laminin in the presence of different concentrations of STQ-peptide. […] STQ-peptide had little effect on RPE cell adhesion to the wells coated with native laminin at any concentration of STQ-peptide tested (FIG. 3).

[5] = test system: murine B16 melanoma cells on denatured laminin; experiment: B16 melanoma cell adhesion to denatured laminin; format: cell-based; conditions: STQ-peptide-S 50 μg/ml
Protocol: as §1
(§2) An adhesion assay was performed according to the method described in Example 2 and by Petticlerc, et al., Cancer Res. 1999; 59:2724-2730. Non-tissue culture treated 48-well plates were coated with denatured laminin in the absence of STQ-peptide-S and in the presence of STQ-peptide-S at a concentration of 50 μg/ml. […]

[6] = test system: Human M21 melanoma cells on denatured laminin; experiment: M21 melanoma cell adhesion to denatured laminin; format: cell-based; conditions: STQ-peptide-S 50 μg/ml
Protocol: as §1, §2

Compound | inhibition of B16 melanoma metastasis (lung surface lesions) [1] | effect on RPE cell adhesion to wells coated with native laminin [2] | adverse effects following injection ([3]; chick embryos) | inhibition of bFGF-induced angiogenesis (branching vessels) ([3]; 24 h after bFGF, 3-day incubation) | blockade of RPE cell adhesion to denatured laminin ([4]; STQ-peptide 100 μg/ml) | blockade of RPE cell adhesion to denatured laminin ([4]; STQ-peptide 200 μg/ml) | inhibition of RPE cell adhesion to wells coated with denatured laminin ([4]; different concentrations of STQ-peptide (FIG. 3)) | blockade of B16 melanoma cell adhesion to denatured laminin [5] | blockade of M21 melanoma cell adhesion to denatured laminin [6]
CC[C@H](C)[C@H](NC(=O)[C@H](CC(C)C)NC(=O)[C@H](CO)NC(=O)[C@H](CC(C)C)NC(=O)[C@H](CC(C)C)NC(=O)[C@H](CCC(N)=O)NC(=O)[C@H](C)NC(=O)[C@H](CC(N)=O)NC(=O)[C@H](CCC(N)=O)NC(=O)[C@@H](NC(=O)[C@H](CO)NC(=O)[C@H](CS)NC(=O)CNC(=O)CNC(=O)[C@@H](N)CCCCN)[C@@H](C)O)C(=O)N[C@H](C(=O)NCC(=O)N[C@@H](CCCCN)C(=O)N[C@@H](C)C(=O)O)C(C)C [STQ-peptide, NH2-K-G-G-C-S-T-Q-N-A-Q-L-L-S-L-I-V-G-K-A-COOH] (H-KGGCSTQNAQLLSLIVGKA-OH) | greater than 95% | little effect | No adverse effects | greater than 95% | greater than 95% | greater than 95% | concentration dependent inhibition |  | 
NH2-K-G-G-S-T-Q-N-A-Q-L-L-S-L-I-V-G-K-A-COOH (H-KGGSTQNAQLLSLIVGKA-OH) [STQ-peptide-S] |  |  |  |  |  |  |  | approximately 80% | approximately 80%

— patent US7387998B2, “STQ peptides” (New York University, priority 2003, dated 2008)
